Reference: US20100040615A1, “Digalactolipidic Antigen Exposed on the Surface of Apicomplex Parasites, and Diagnostic and Therapeutic Use Thereof” (COMMISSARIAT A L'ENERGIE ATOMIQUE, priority 2007, published 2010)

Test: Immunization of animals with purified galactolipid, sera tested for antibodies
Format: in vivo, rabbits and rat
Details: five immunizations, Freund's adjuvant, sera taken at D57
Experimental: Two rabbits and one rat were immunized with purified DGDG ([…]), according to the following protocol: • a first immunization (D0) by multisite subcutaneous injection (total volume of 1 ml) of 0.5 mg of antigen in 0.5 ml of a solution of NaCl (0.9%), emulsified in 0.5 ml of complete Freund's adjuvant, • a second immunization (D10) by subcutaneous (1 ml) and intramuscular (0.5 ml) injection of 0.5 mg of antigen in 0.75 ml of a solution of NaCl (0.9%), emulsified in 0.75 ml of incomplete Freund's adjuvant, • a third immunization (D21) by subcutaneous (1 ml) and intramuscular (0.5 ml) injection of 0.5 mg of antigen in 0.75 ml of a solution of NaCl (0.9%), emulsified in 0.75 ml of incomplete Freund's adjuvant, • a fourth immunization (D36) by intramuscular (0.5 ml) and intravenous (0.5 ml) injection: 0.17 mg of antigen in 0.25 ml of a solution of NaCl (0.9%), emulsified in 0.25 ml of incomplete Freund's adjuvant, injected intramuscularly, and 0.33 mg of antigen in 0.5 ml of a solution of NaCl (0.9%), injected intravenously, and • a fifth immunization (D50) by intramuscular (0.5 ml) and intravenous (0.5 ml) injection: 0.17 mg of antigen in 0.25 ml of a solution of NaCl (0.9%), emulsified in 0.25 ml of incomplete Freund's adjuvant, injected intramuscularly, and 0.33 mg of antigen in 0.5 ml of a solution of NaCl (0.9%), injected intravenously. […]

| Substance | induction of active serum (antibodies against the immunizing lipid) |
| --- | --- |
| 1,2-diacyl-(α-D-galactopyranosyl-(1→6)-β-D-galactopyranosyl-(1′→3))-sn-glycerol [DGDG] | made it possible to obtain active sera containing antibodies that recognize DGDG |
| monogalactosyldiacylglycerol [MGDG] | did not make it possible to obtain active serum |
